Measured values: patent US8937084B2, “Nitrogen containing morphinan derivatives and the use thereof” (Purdue Pharma L.P., priority 2012, dated 2015)

Tests used:
δ opioid receptor [1] = biological target: T1, δ opioid receptor (Homo sapiens (Human), UniProt P41143); assay: δ-opioid receptor radioligand dose-displacement binding assay ([3H]-Naltrindole)
Description: δ-Oploid Receptor Binding Assay Procedures: δ-Opioid Receptor Binding Assay Procedures were conducted as follows. Radioligand dose-displacement assays used 0.3 nM [^3H]-Naltrindole (Perkin Elmer, Shelton, Conn.; 33.0 Ci/mmole) with 5 μg membrane protein (Perkin Elmer, Shelton, Conn.) in a final volume of 500 μl binding buffer (5 mM MgCl2, 5% DMSO, 50 mM Trizma base, pH 7.4). Non-specific binding was determined in the presence of 25 μM unlabeled naloxone. All reactions were performed in 96-deep well polypropylene plates for 1 hour at a temperature of about 25° C. Binding reactions were terminated by rapid filtration onto 96-well Unifilter GF/C filter plates (Perkin Elmer, Shelton, Conn.) presoaked in 0.5% polyethylenimine (Sigma). Harvesting was performed using a 96-well tissue harvester (Perkin Elmer, Shelton, Conn.) followed by five filtration washes with 500 μl ice-cold binding buffer. Filter plates were subsequently dried at 50° C. for 1-2 hours. Fifty μl/well scintillation cocktail (Perkin Elmer, Shelton, Conn.) was added and plates were counted in a Packard Top-Count for 1 min/well.
In TABLE 1, binding affinity of certain Compounds of the Invention to the μ-, δ- and κ-opioid receptors was determined as described above.

μ-opioid receptor = μ-opioid receptor (Homo sapiens (Human), UniProt P35372); assay: μ-opioid receptor [35S]GTPγS functional assay, HEK-293 or CHO cells; assay type: biochemical; settings: for EC50: GTPγS; for Emax: relative to DAMGO
Description: μ-Opioid Receptor Functional Assay Procedures: [^35S]GTPγS functional assays were conducted using freshly thawed μ-receptor membranes prepared in-house from a cell line expressing recombinant μ opioid receptor in a HEK-293, CHO or U-2 OS cell background, or purchased from a commercial source (Perkin Elmer, Shelton, Conn.; or DiscovRx, Fremont, Calif.). Assay reactions were prepared by sequentially adding the following reagents to binding buffer (100 mM NaCl, 10 mM MgCl2, 20 mM HEPES, pH 7.4) on ice (final concentrations indicated): membrane protein (0.026 mg/mL), saponin ([…]), GDP ([…]) and [^35S]GTPγS (0.20 nM; Perkin Elmer, Shelton, Conn.). The prepared membrane solution (190 μl/well) was transferred to 96-shallow well polypropylene plates containing 10 μl of 20× concentrated stock solutions of the agonist [D-Ala^2, N-methyl-Phe^4 Gly-ol^5]-enkephalin (DAMGO) prepared in dimethyl sulfoxide (DMSO). Plates were incubated for 30 min at about 25° C. with shaking. Reactions were terminated by rapid filtration onto 96-well Unifilter GF/B filter plates (Perkin Elmer, Shelton, Conn.) using a 96-well tissue harvester (Perkin Elmer, Shelton, Conn.) followed by three filtration washes with 200 μl of ice-cold wash buffer (10 mM NaH2PO4, 10 mM Na2HPO4, pH 7.4). Filter plates were subsequently dried at 50° C. for 2-3 hours. BetaScint scintillation cocktail (Perkin Elmer, Shelton, Conn.) was added (50 μl/well) and plates were counted using a Packard Top-Count for 1 min/well. Data were analyzed using the sigmoidal dose-response curve fitting functions in GraphPad PRISM v. 3.0, or an in-house function for non-linear, sigmoidal dose-response curve-fitting.
μ-Opioid Receptor Functional Data: μ GTP EC50 is the concentration of a compound providing 50% of the maximal response for the compound at a μ-opioid receptor.
μ GTP Emax (%) is the maximal effect elicited by a compound relative to the effect elicited by DAMGO, a standard μ agonist. Generally, the μ GTP Emax (%) value measures the efficacy of a compound to treat or prevent pain or other Conditions.
(§1) In TABLE 2, activity response of certain Compounds of the Invention to the μ-, δ- and κ-opioid receptors was determined as described above for functional assays using HEK-293 or CHO cells.

δ opioid receptor [2] = biological target: T1, δ opioid receptor; assay: δ-opioid receptor [35S]GTPγS functional assay, HEK-293 or CHO cells; assay type: biochemical; settings: for EC50: GTPγS; for Emax: relative to met-enkephalin
Description: δ-Opioid Receptor Functional Assay Procedures: Functional [^35S]GTPγS binding assays were conducted as follows. 5 opioid receptor membrane solution was prepared by sequentially adding final concentrations of […] δ membrane protein (Perkin Elmer, Shelton, Conn.), 10 μg/mL saponin, 3 µM GDP and 0.20 nM [^35S]GTPγS to binding buffer (100 mM NaCl, 10 mM MgCl2, 20 mM HEPES, pH 7.4) on ice. The prepared membrane solution ([…]) was transferred to 96-shallow well polypropylene plates containing 10 μl of 20× concentrated stock solutions of agonist prepared in DMSO. Plates were incubated for 30 min at a temperature of about 25° C. with shaking. Reactions were terminated by rapid filtration onto 96-well Unifilter GF/B filter plates (Perkin Elmer, Shelton, Conn.) using a 96-well tissue harvester (Packard) and followed by three filtration washes with 200 μl ice-cold binding buffer (10 mM NaH2PO4, 10 mM Na2HPO4, pH 7.4). Filter plates were subsequently dried at 50° C. for 1-2 hours. Fifty μl/well scintillation cocktail (Perkin Elmer, Shelton, Conn.) was added and plates were counted in a Packard Top-count for 1 min/well.
δ-Oploid Receptor Functional Data: δ GTP EC50 is the concentration of a compound providing 50% of the maximal response for the compound at a δ receptor.
δ GTP Emax (%) is the maximal effect elicited by a compound relative to the effect elicited by met-enkephalin.
as §1

κ opioid receptor = κ opioid receptor (Homo sapiens (Human), UniProt P41145); assay: κ-opioid receptor [35S]GTPγS functional assay, U-2 OS cells; assay type: biochemical; settings: for EC50: GTPγS; for Emax: relative to U69,593
Description: κ-Opioid Receptor Functional Assay Procedures: Functional [^35S]GTPγS binding assays were conducted as follows. κ opioid receptor membrane solution was prepared by sequentially adding final concentrations of 0.026 μg/μl κ membrane protein (in-house), 10 μg/mL saponin, 3 μM GDP and 0.20 nM [^35S]GTPγS to binding buffer (100 mM NaCl, 10 mM MgCl2, 20 mM HEPES, pH 7.4) on ice. The prepared membrane solution (190 μl/well) was transferred to 96-shallow well polypropylene plates containing 10 μl of 20× concentrated stock solutions of agonist prepared in DMSO. Plates were incubated for 30 min at a temperature of about 25° C. with shaking. Reactions were terminated by rapid filtration onto 96-well Unifilter GF/B filter plates (Perkin Elmer, Shelton, Conn.) using a 96-well tissue harvester (Packard) and followed by three filtration washes with 200 μl ice-cold binding buffer (10 mM NaH2PO4, 10 mM Na2HPO4, pH 7.4). Filter plates were subsequently dried at 50° C. for 2-3 hours. Fifty μl/well scintillation cocktail (Perkin Elmer, Shelton, Conn.) was added and plates were counted in a Packard Top-Count for 1 min/well.
κ-Oploid Receptor Functional Data: κ GTP EC50 is the concentration of a compound providing 50% of the maximal response for the compound at a K receptor.
κ GTP Emax (%) is the maximal effect elicited by a compound relative to the effect elicited by U69,593.
The following TABLE 3 provides results on the activity response of certain Compounds of the Invention at the μ- and κ-opioid receptors determined as described above using U-2 OS cells.

T1 sequence (P41143 whole entry, looked up): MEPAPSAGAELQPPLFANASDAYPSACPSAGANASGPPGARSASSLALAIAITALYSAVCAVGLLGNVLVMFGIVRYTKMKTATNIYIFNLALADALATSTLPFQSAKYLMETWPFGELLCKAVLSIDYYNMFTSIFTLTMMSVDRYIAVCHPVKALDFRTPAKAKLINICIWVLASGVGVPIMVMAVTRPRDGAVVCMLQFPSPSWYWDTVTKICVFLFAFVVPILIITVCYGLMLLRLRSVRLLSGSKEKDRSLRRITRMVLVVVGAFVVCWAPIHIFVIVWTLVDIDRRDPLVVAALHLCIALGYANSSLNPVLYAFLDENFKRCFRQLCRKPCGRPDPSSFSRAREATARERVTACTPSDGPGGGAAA

With `O=C1C[C@]23CCN(CC4CC4)[C@H](Cc4ccc(O)cc42)[C@@H]3CN1` [Compound 7, (4aS,5R,10bS)-13-(cyclopropylmethyl)-9-hydroxy-4,4-a,5,6-tetrahydro-1H-5,10b-(epiminoethano)benzo[f]isoquinolin-2(3H)-one] the Ki (δ opioid receptor [1]) was 15 ± 3.45 nM, the EC50 (μ-opioid receptor) was 0.0131 ± 0.00375 µM and the Emax (μ-opioid receptor) was 28.7%. The EC50 (δ opioid receptor [2]) was 0.0087 ± 0.00125 µM, the Emax (δ opioid receptor [2]) was 85.7 ± 6.89% and the EC50 (κ opioid receptor) was 0.00021 ± 1.4e-05 µM. It also gave an Emax (κ opioid receptor) of 106 ± 1.53%.
With `O=C(O)CN1C[C@H]2[C@H]3Cc4ccc(O)cc4[C@@]2(CCN3CC2CC2)CC1=O` [Compound 8, 2-((4aS,5R,10bS)-13-(cyclopropylmethyl)-9-hydroxy-2-oxo-4,4-a,5,6-tetrahydro-1H-5,10b-(epiminoethano)benzo[f]isoquinolin-3(2H)-yl)acetic acid] the Ki (δ opioid receptor [1]) was 82.2 ± 30.1 nM, the EC50 (μ-opioid receptor) was 0.00606 ± 0.0021 µM and the Emax (μ-opioid receptor) was 12.3%. The EC50 (δ opioid receptor [2]) was 0.00241 ± 0.00029 µM and the Emax (δ opioid receptor [2]) was 110 ± 3.11%.
Work on `O=C1C[C@]23CCN(CC4CC4)[C@H](Cc4ccc(O)cc42)[C@@H]3CN1Cc1ccc(O)cc1` [Compound 5, (4aS,5R,10bS)-13-(cyclopropylmethyl)-9-hydroxy-3-(4-hydroxybenzyl)-4,4-a,5,6-tetrahydro-1H-5,10b-(epiminoethano)benzo[f]isoquinolin-2(3H)-one] yielded a Ki (δ opioid receptor [1]) of 22.9 ± 8.53 nM, an EC50 (μ-opioid receptor) of 0.0459 ± 0.014 µM and an Emax (μ-opioid receptor) of 30%. It also gave an EC50 (δ opioid receptor [2]) of 0.00439 ± 0.00093 µM and an Emax (δ opioid receptor [2]) of 71 ± 6.08%.
For `NC(=O)CN1C[C@H]2[C@H]3Cc4ccc(O)cc4[C@@]2(CCN3CC2CC2)CC1=O` [Compound 4, 2-((4aS,5R,10bS)— 13-(cyclopropylmethyl)-9-hydroxy-2-oxo-4,4-a,5,6-tetrahydro-1H-5,10b-(epiminoethano)benzo[f]isoquinolin-3(2H)-yl)acetamide], the Ki (δ opioid receptor [1]) was 49 ± 17.7 nM, the EC50 (μ-opioid receptor) was 0.00911 ± 0.00122 µM and the Emax (μ-opioid receptor) was 24%. It also gave an EC50 (δ opioid receptor [2]) of 0.00906 ± 0.00094 µM, an Emax (δ opioid receptor [2]) of 109 ± 3.28% and an EC50 (κ opioid receptor) of 0.00165 ± 5.4e-05 µM. For the same compound, the Emax (κ opioid receptor) was 104 ± 2.6%.
For `Oc1ccc2c(c1)[C@@]13CCNC[C@H]1[C@@H](C2)N(CC1CC1)CC3` [Compound 13, (4aS,5R,10bR)-13-(cyclopropylmethyl)-2,3,4,4a,5,6-hexahydro-1H-5,10b-(epiminoethano)benzo[f]isoquinolin-9-ol], the Ki (δ opioid receptor [1]) was 174 ± 33.7 nM, the EC50 (μ-opioid receptor) was 0.0294 ± 0.00766 µM and the Emax (μ-opioid receptor) was 61%. It also gave an EC50 (δ opioid receptor [2]) of 0.0365 ± 0.0111 µM and an Emax (δ opioid receptor [2]) of 83.3 ± 1.45%.
